# Reference: the supplement of paper PMC10307832
# Compound: CC(C)=CC[C@@H](O)C1=CC(=O)c2c(O)ccc(O)c2C1=O [Shikonin] + CS(=O)(=O)N1CCN(Cc2cc3nc(-c4cccc5[nH]ncc45)nc(N4CCOCC4)c3s2)CC1 [Pictilisib] (partner 1 µM)
# Test: relative viability (nuclei count vs DMSO), 5 days (fraction); higher = more cells survive
# Settings: first compound 0.01 µM
# Procedure, shortened: (§1)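 Relative viability divides the nuclei count in treated wells by that in vehicle wells. Lung cancer cell lines were seeded in 1536-well plates, dosed by pin tool the next day, and fixed and stained after 5 days in one step with final 0.05% Triton X-100, 1% formaldehyde and 1 ug/ml Hoechst. Dosing was a single drug or a fixed anchor-drug dose plus five library-drug doses (not always all listed) in √10 steps, and values are medians of duplicate plates imaged at 4×.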
row,Cell Line,relative viability
1,NCI-H1299,0.76
2,NCI-H661,0.372
3,CAL-12T,0.368
4,NCI-H1651,0.612
5,EPLC-272H,0.299
6,NCI-H23,0.508
7,NCI-H1792,0.306
8,NCI-H1355,0.407
9,NCI-H322M,0.498
10,NCI-H1437,0.424
11,NCI-H1755,0.468
12,NCI-H2085,0.41
13,HCC-15,0.699
14,NCI-H1793,0.359
15,RERF-LC-KJ,0.549
16,EKVX,0.46
17,LC-2-ad,0.336
18,NCI-H1563,0.629
19,NCI-H1944,0.352
20,NCI-H1975,0.287
21,SW 1573,0.616
22,ABC-1,0.718
23,NCI-H358,0.297
24,NCI-H727,0.326
25,SK-LU-1,0.511

# Same assay, conditions: first compound 0.1 µM
row,Cell Line,relative viability
1,NCI-H1299,1.08
2,NCI-H661,0.427
3,CAL-12T,0.409
4,NCI-H1651,0.562
5,EPLC-272H,0.383
6,NCI-H23,0.514
7,NCI-H1792,0.206
8,NCI-H1355,0.498
9,NCI-H322M,0.526
10,NCI-H1437,0.421
11,NCI-H1755,0.472
12,NCI-H2085,0.47
13,HCC-15,0.789
14,NCI-H1793,0.251
15,RERF-LC-KJ,0.512
16,EKVX,0.451
17,LC-2-ad,0.506
18,NCI-H1563,0.719
19,NCI-H1944,0.379
20,NCI-H1975,0.283
21,SW 1573,0.604
22,ABC-1,0.776
23,NCI-H358,0.366
24,NCI-H727,0.353
25,SK-LU-1,0.541

# Same assay, conditions: first compound 0.3162 µM
row,Cell Line,relative viability
1,NCI-H1299,0.711
2,NCI-H661,0.39
3,CAL-12T,0.35
4,NCI-H1651,0.669
5,EPLC-272H,0.292
6,NCI-H23,0.497
7,NCI-H1792,0.293
8,NCI-H1355,0.408
9,NCI-H322M,0.496
10,NCI-H1437,0.416
11,NCI-H1755,0.406
12,NCI-H2085,0.424
13,HCC-15,0.732
14,NCI-H1793,0.241
15,RERF-LC-KJ,0.557
16,EKVX,0.496
17,LC-2-ad,0.469
18,NCI-H1563,0.675
19,NCI-H1944,0.353
20,NCI-H1975,0.268
21,SW 1573,0.558
22,ABC-1,0.538
23,NCI-H358,0.281
24,NCI-H727,0.311
25,SK-LU-1,0.442

# Same assay, conditions: first compound 1 µM
row,Cell Line,relative viability
1,NCI-H1299,0.429
2,NCI-H661,0.38
3,CAL-12T,0.414
4,NCI-H1651,0.64
5,EPLC-272H,0.36
6,NCI-H23,0.378
7,NCI-H1792,0.308
8,NCI-H1355,0.445
9,NCI-H322M,0.504
10,NCI-H1437,0.477
11,NCI-H1755,0.472
12,NCI-H2085,0.411
13,HCC-15,0.832
14,NCI-H1793,0.304
15,RERF-LC-KJ,0.248
16,EKVX,0.448
17,LC-2-ad,0.408
18,NCI-H1563,0.566
19,NCI-H1944,0.392
20,NCI-H1975,0.294
21,SW 1573,0.532
22,ABC-1,0.407
23,NCI-H358,0.343
24,NCI-H727,0.431
25,SK-LU-1,0.616

# Compound: CC(C)N(CCCNC(=O)Nc1ccc(C(C)(C)C)cc1)C[C@H]1O[C@@H](n2ccc3c(N)ncnc32)[C@H](O)[C@@H]1O + CS(=O)(=O)CCNCc1ccc(-c2ccc3ncnc(Nc4ccc(OCc5cccc(F)c5)c(Cl)c4)c3c2)o1 [Lapatinib] (partner 2 µM)
# Test: as above
# Settings: first compound 0.08 µM
# Procedure, shortened: as §1
row,Cell Line,relative viability
1,NCI-H1299,0.984
2,NCI-H661,0.441
3,CAL-12T,0.61
4,NCI-H1651,0.724
5,EPLC-272H,1.05
6,NCI-H23,1
7,NCI-H1792,0.878
8,NCI-H1355,0.94
9,NCI-H322M,0.536
10,NCI-H1437,0.703
11,NCI-H1755,1.02
